Five molecules from patent US8084459B2, “Substituted quinazolinones for treating neurological conditions” (Prana Biotechnology Ltd, priority 2004, dated 2011) can be followed below.

As usually defined, the pIC50 is the IC50 on a negative log10 scale, so that one unit is a factor of ten. A high value points to a low IC50.

In one test the target is T1, Aβ 1-42 (Homo sapiens, UniProt P05067).
T1 construct: The reaction solutions contained Aβ 1-42 at concentrations
Kind of test: Assay 1 Fluorometric H2O2 assay (peroxide). The test is classed as biochemical. The settings on record: inhibition of H2O2 generation by Aβ with copper. The method, boiled down:
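DCF fluorescence (ex 485/em 530 nm) after 60 min at 37 °C in PBS pH 7.4; Aβ 1-42 (50 nM–1 μM) with Cu-Gly (2:1 to Aβ), dopamine 5 μM or ascorbate, deacetylated DCF 100 μM, HRP 0.1 μM, and test compound. H2O2 quantified against H2O2 standards.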

The test system of test [1] is Aβ1-42 toxicity in neuronal cortical cells. Kind of test: Assay 3(c) Aβ neurotoxicity and neuroprotection (MTS). The test is classed as cell-based, mouse. The settings on record: 20 uM Aβ1-42, cortical neurons, 4 days. Here is the method: Primary Cortical Neuronal Cultures
Cortical cultures were prepared as previously described (White et al., 1998). Embryonic day 14 BL6Jx129sv mouse cortices were removed, dissected free of meninges and dissociated in 0.025% (wt/vol) trypsin. Dissociated cells were plated in 48 well culture plates at a density of 2×10^6 cells/mL in MEM with 25% (vol/vol) FCS and 5% (vol/vol) HS and incubated at 37° C., 2 hrs. Media was then replaced with Neurobasal media (Invitrogen Life Technologies) and B27 supplements (Invitrogen Life Technologies). Cultures were maintained at 37° C. in 5% CO2. Prior to experimentation, the culture medium was replaced with Neurobasal media and B27 minus antioxidants (Invitrogen Life Technologies).
(c) Assay for Aβ Neurotoxicity and Aβ Neuroprotection
Neuronal cortical cells were cultured for five days as per Assay 2. On day six the neurobasal (NB) media (Invitrogen Life Technologies) and B27 supplement (Invitrogen Life Technologies) were replaced with NB media and B27 supplement (no antioxidants). On day six, test compounds were individually added to the neuronal cell cultures:
The test compounds were dissolved in 100% DMSO to a concentration of 2.5 mM (10 mM if excess compound was weighed out per vial—then diluted to 2.5 mM). 2.5 mM stock solution was serially diluted 1 in 10 to give working solutions of 250 uM, 25 uM, 2.5 uM.
Aβ was initially dissolved in 20 mM NaOH to a concentration of 1 mM and sonicated for 5 minutes. The peptide was then diluted in H2O and 10×PBS to a final concentration of 200 uM Aβ in 1× PBS. The peptide was again sonicated for 5 minutes and then spun at 14000 rpm for 5 min and transferred to a fresh tube.
The test compounds were dissolved in 100% DMSO to a concentration of 2.5 mM (10 mM if excess compound was weighed out per vial—then diluted to 2.5 mM). 2.5 mM stock solution was serially diluted 1 in 10 [in NB media and B27 (no antioxidants)] to give working solutions of 250 uM, 25 uM, 2.5 uM. Test compounds were not added directly to cells, instead they were added to a 48 well ‘Drug Plate’ as comprised below:
Preparation of “Drug Plate”:
Well 1: 515 ul NB+B27 (no antioxidant)*+24 ul 25 uM test compound+60 ul Aβ diluent**
Well 2: 515 ul NB+B27 (no antioxidant)+24 ul 250 uM test compound+60 ul Aβ diluent
Well 3: 515 ul NB+B27 (no antioxidant)+24 ul test compound diluent***+60 ul Aβ1-42
Well 4: 515 ul NB+B27 (no antioxidant)+24 ul 2.5 uM test compound+60 ul Aβ1-42
Well 5: 515 ul NB+B27 (no antioxidant)+24 ul 25 uM test compound+60 ul Aβ1-42
Well 6: 515 ul NB+B27 (no antioxidant)+24 ul 250 uM test compound+60 ul Aβ1-42 diluent
Well 7: 515 ul NB+B27 (no antioxidant)+24 ul test compound diluent+60 ul Aβ1-42 diluent
Well 8: 600 ul NB+B27 (no antioxidant)
The Drug Plate was incubated at 37° C. for 15 mins. 200 ul of each well was added in triplicate to the corresponding cell plate. The cell plate was incubated at 37 C, for 4 days.
* NB media+B27 (no antioxidants)
** Aβ diluent 2 mM NaOH, 1×PBS
*** PBT diluent 10% DMSO in NB+B27 (no antioxidant)
On the 4th day after treating the cells the assay is completed by adding MTS to the cells.

Molecules are shown by their SMILES. pIC50: −log10 of the molar value.

T1 sequence (P05067 672-713 limits assumed): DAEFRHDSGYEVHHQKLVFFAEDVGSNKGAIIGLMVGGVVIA

`O=c1c2c(Cl)cc(Cl)c(O)c2ncn1CCN1CCCC1` [Compound 1075] showed a pIC50 against Aβ 1-42 of 6.14.

Consider `O=c1c2c(Cl)cc(Cl)c(O)c2ncn1Cc1ccccn1` [Compound 1077], for which the pIC50 against Aβ 1-42 was 6.32.

Take `Cc1nc(Cn2cnc3c(O)c(Cl)cc(Cl)c3c2=O)cs1` [Compound 1084]: the “Assay 3(c) Neuroprotection (% inhibition of Abeta toxicity)” value in test [1] amounted to 2%. Further, the pIC50 on Aβ 1-42 was 6.44.

Turning to `Cc1noc(C)c1Cn1cnc2c(O)c(Cl)cc(Cl)c2c1=O` [Compound 1085], the “Assay 3(c) Neuroprotection (% inhibition of Abeta toxicity)” value in test [1] came out at 7%. The pIC50 against Aβ 1-42 was 6.43.

Turning to `Br.CCCn1cnc2c(O)c(Cl)cc(Cl)c2c1=O` [Compound 1097], the pIC50 at Aβ 1-42 was 6.55.
